Measurements taken from patent US8415469B2, “Compounds and methods for kinase modulation, and indications therefor” (Plexxikon Inc., priority 2005, dated 2013).
One block for each compound: values may come before it.

Columns and labels:
Format in all cases: biochemical
Akt3 = Akt3 (Homo sapiens, UniProt Q9Y243); test: AlphaScreen kinase assay, Akt3; details: read-out: IC50, activity toward kinase Akt3
Excerpt: AlphaScreen assay was used to screen additional kinases. The assay is similarly dependent on the phosphorylation of a peptide substrate. In this assay, an antibody that recognizes phosphorylated substrate is bound to an acceptor bead. The peptide substrate is attached to biotin, which binds to a donor head that contains streptavidin. Thus phosphorylated substrate is bound by antibody and streptavidin, bringing the donor and acceptor heads into close proximity when kinase is not inhibited. The donor produces singlet oxygen which results in emission from the acceptor when they are in close proximity. Conversely, when kinase is inhibited, the donor and acceptor beads are not associated and the emission from the acceptor is reduced.
AlphaScreen assays were done using compounds dissolved in DMSO to a concentration of 20 mM. The compounds were diluted accordingly to the desired final concentrations in each sample well, using 1:3 serial dilution for a total of 8 concentration points.

B-Raf = target: T1, B-Raf (Homo sapiens, UniProt P15056); test: AlphaScreen kinase assay, B-Raf; details: read-out: IC50, activity toward kinase B-Raf
T1 construct: purchased Upstate Biotechnology
T1 sequence (P15056 whole entry): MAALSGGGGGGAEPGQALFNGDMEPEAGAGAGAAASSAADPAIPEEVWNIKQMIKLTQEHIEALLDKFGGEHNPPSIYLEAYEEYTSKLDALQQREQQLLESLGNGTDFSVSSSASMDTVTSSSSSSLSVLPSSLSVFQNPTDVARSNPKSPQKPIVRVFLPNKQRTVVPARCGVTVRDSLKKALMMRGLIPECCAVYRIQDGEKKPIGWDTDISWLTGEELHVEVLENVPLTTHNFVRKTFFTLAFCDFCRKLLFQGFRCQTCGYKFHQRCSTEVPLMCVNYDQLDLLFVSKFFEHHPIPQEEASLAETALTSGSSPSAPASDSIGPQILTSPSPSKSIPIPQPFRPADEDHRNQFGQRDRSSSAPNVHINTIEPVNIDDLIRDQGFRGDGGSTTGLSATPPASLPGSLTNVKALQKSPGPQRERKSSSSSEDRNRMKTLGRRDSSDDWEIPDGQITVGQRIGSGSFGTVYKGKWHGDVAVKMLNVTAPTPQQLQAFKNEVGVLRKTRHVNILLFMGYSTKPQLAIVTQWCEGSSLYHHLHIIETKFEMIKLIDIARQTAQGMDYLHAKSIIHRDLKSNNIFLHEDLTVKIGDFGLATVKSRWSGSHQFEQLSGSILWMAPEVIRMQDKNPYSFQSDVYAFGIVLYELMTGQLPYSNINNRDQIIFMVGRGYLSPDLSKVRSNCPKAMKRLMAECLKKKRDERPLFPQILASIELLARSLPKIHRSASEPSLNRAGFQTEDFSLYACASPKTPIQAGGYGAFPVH

B-Raf V600E = target: T2, B-Raf V600E (Homo sapiens, UniProt P15056, V600E); test: AlphaScreen kinase assay, B-Raf V600E; details: read-out: IC50, activity toward kinase B-Raf V600E
T2 construct: P4254. pFastBacBD-CDC37 BRAF D437-K722-X, V600E; His6 with pFastBac HT leader (TEV site) (N); made in house; host or cells: Sf9 (baculovirus; chaperone CDC37 co-expressed)
T2 sequence (P15056 with tags, fused parts or gaps V600E): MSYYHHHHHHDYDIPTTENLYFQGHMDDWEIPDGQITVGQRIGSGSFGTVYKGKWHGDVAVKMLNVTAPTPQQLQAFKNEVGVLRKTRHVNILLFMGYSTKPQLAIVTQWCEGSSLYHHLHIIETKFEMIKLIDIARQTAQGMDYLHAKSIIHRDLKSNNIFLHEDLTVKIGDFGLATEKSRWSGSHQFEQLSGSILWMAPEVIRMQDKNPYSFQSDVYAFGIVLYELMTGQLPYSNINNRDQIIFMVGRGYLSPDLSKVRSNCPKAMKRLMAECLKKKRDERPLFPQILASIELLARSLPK

c-Raf-1 = target: T3, c-Raf-1 (Homo sapiens, UniProt P04049); test: AlphaScreen kinase assay, c-Raf-1; details: read-out: IC50, activity toward kinase c-Raf-1
T3 construct: purchased Upstate Biotechnology
T3 sequence (P04049 whole entry): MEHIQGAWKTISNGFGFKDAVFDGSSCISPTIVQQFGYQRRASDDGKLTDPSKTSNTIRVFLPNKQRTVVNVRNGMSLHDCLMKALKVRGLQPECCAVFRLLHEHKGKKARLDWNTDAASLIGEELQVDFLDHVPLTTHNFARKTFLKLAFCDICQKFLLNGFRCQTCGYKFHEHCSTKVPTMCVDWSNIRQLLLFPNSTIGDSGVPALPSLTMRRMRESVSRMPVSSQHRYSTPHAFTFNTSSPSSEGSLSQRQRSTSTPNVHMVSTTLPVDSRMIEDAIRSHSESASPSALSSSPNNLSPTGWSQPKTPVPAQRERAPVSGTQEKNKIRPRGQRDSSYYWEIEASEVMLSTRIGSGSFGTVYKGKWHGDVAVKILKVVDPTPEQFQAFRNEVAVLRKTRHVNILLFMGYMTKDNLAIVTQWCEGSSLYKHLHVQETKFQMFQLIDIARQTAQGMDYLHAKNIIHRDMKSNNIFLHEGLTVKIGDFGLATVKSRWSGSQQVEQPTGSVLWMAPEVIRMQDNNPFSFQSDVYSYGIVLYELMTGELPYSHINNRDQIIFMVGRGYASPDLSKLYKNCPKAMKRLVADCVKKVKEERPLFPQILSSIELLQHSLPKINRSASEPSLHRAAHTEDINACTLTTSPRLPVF

Kit = target: T4, Kit (Homo sapiens, UniProt P10721); test: AlphaScreen kinase assay, Kit; details: read-out: IC50, activity toward kinase Kit
T4 construct: P1332.N6 BI PTP KIT M552-K948-X COD; His6 (N); made in house; host or cells: E. coli (PTP1B co-expressed)
T4 sequence (P10721 with tags, fused parts or gaps): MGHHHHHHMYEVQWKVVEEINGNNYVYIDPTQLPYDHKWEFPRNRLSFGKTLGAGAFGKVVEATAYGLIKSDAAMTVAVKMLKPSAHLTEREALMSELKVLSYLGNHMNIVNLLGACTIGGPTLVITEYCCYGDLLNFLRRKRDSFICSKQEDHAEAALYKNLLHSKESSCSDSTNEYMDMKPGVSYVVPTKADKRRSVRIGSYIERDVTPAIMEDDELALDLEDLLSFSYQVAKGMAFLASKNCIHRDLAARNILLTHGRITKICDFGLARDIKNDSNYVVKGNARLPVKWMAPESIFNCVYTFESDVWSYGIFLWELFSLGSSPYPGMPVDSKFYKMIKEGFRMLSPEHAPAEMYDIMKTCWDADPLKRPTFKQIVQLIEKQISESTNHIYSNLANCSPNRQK

Pyk2 = target: T5, Pyk2 (Homo sapiens, UniProt Q14289); test: AlphaScreen kinase assay, Pyk2; details: read-out: IC50, activity toward kinase Pyk2
T5 construct: purchased Upstate Biotechnology
T5 sequence (Q14289 whole entry): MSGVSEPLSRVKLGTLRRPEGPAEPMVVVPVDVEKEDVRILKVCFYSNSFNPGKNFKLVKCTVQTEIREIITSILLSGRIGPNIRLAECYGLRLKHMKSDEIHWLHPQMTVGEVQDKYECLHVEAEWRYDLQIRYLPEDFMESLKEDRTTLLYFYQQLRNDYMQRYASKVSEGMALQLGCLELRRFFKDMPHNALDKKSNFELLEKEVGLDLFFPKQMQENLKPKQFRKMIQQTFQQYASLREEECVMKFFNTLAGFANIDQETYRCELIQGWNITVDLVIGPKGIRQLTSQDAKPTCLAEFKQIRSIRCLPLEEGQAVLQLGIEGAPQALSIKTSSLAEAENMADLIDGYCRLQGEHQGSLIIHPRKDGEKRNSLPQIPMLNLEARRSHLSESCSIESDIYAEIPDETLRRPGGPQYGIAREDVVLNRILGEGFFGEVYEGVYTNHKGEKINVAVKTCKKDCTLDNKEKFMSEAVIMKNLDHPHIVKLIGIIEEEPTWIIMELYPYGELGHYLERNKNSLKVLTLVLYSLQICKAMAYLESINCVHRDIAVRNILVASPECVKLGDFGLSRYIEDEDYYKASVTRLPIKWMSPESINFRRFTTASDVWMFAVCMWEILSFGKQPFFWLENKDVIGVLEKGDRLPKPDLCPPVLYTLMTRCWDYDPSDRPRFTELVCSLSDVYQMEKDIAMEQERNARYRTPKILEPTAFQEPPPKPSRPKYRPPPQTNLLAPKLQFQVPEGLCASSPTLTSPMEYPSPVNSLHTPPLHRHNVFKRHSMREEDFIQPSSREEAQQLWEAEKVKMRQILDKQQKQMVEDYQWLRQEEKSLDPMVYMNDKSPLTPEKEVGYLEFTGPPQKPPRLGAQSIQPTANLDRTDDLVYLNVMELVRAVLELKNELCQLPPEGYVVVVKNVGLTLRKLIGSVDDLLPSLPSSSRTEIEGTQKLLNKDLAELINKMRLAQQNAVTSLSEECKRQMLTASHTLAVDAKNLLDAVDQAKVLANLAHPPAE

FGFR1 = target: T6, FGFR1 (Homo sapiens, UniProt P11362, C488A/C584S); test: AlphaScreen kinase assay, FGFR1; details: read-out: IC50, activity toward kinase FGFR
T6 construct: P1351.pET N6 BI-PTP FGFR A458-E765-X C488A, C584S; made in house; host or cells: E. coli (PTP1B co-expressed)
T6 sequence (P11362 458-765 C488A/C584S): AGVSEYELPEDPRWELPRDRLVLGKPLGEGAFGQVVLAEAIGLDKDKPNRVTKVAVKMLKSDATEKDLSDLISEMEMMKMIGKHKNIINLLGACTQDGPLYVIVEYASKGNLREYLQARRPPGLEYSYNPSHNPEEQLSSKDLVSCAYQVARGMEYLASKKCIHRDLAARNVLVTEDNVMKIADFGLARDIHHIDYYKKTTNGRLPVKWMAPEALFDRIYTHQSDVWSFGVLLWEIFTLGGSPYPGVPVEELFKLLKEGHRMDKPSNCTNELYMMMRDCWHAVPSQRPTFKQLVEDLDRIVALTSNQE

Fms = target: T7, Fms (Homo sapiens, UniProt P07333); test: AlphaScreen kinase assay, Fms; details: read-out: IC50, activity toward kinase Fms
T7 construct: purchased Upstate Biotechnology

Src = target: T8, Src (Homo sapiens, UniProt P12931); test: AlphaScreen kinase assay, Src; details: read-out: IC50, activity toward kinase Src
T8 construct: P1144. pET-N6 BI-PTP SRC V86-L536-X; made in house
T8 sequence (P12931 with tags, fused parts or gaps): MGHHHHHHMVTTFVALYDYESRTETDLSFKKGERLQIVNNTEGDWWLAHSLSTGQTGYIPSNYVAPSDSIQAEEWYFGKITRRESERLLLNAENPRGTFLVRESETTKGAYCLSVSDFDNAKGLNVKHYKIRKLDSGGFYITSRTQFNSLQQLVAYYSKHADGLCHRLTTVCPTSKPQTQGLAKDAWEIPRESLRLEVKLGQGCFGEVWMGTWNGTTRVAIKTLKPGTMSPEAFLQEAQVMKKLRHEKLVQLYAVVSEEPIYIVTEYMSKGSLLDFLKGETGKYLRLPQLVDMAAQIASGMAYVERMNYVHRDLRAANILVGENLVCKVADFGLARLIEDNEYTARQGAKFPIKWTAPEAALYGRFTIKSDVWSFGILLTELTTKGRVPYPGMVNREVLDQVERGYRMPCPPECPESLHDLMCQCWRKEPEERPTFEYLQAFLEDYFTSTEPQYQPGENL

Flt1 = target: T9, Flt1 (Homo sapiens, UniProt P17948); test: AlphaScreen kinase assay, Flt1; details: read-out: IC50, activity toward kinase Flt1
T9 construct: P1826.pETN6 BI-PTP FLT1 M799-D1165-X WT; His6 (N); made in house; host or cells: E. coli (PTP1B co-expressed)
T9 sequence (P17948 with tags, fused parts or gaps): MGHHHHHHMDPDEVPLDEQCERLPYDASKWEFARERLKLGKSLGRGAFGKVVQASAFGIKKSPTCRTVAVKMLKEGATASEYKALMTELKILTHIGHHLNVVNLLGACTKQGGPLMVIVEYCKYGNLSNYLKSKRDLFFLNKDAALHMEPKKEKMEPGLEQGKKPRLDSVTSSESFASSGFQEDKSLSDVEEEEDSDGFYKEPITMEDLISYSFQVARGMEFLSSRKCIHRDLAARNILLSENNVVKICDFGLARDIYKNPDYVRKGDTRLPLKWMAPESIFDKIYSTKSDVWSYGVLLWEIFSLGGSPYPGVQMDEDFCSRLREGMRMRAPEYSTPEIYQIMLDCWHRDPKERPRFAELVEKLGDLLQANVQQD

Ret = target: T10, Ret (Homo sapiens, UniProt P07949); test: AlphaScreen kinase assay, Ret; details: read-out: IC50, activity toward kinase Ret
T10 construct: P1378.pET-SF BI-PTP RET H661-R1012 HIS; made in house
T10 sequence (P07949 with tags, fused parts or gaps): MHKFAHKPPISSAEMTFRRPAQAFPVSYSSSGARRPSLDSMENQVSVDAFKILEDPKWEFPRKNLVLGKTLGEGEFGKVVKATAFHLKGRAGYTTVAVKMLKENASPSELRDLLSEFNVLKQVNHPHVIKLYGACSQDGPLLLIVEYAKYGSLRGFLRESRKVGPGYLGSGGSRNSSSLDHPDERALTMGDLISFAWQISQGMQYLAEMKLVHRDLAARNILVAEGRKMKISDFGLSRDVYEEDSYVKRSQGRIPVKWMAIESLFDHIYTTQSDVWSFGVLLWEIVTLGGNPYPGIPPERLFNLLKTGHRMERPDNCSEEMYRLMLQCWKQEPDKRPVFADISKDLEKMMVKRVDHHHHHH

Jnk1 = target: T11, Jnk1 (Homo sapiens, UniProt P45983); test: AlphaScreen kinase assay, Jnk1; details: read-out: IC50, activity toward kinase Jnk1
T11 construct: purchased Upstate Biotechnology

Jnk3 = target: T12, Jnk3 (Homo sapiens, UniProt P53779); test: AlphaScreen kinase assay, Jnk3; details: read-out: IC50, activity toward kinase Jnk3
T12 construct: purchased Upstate Biotechnology
T12 sequence (P53779 whole entry): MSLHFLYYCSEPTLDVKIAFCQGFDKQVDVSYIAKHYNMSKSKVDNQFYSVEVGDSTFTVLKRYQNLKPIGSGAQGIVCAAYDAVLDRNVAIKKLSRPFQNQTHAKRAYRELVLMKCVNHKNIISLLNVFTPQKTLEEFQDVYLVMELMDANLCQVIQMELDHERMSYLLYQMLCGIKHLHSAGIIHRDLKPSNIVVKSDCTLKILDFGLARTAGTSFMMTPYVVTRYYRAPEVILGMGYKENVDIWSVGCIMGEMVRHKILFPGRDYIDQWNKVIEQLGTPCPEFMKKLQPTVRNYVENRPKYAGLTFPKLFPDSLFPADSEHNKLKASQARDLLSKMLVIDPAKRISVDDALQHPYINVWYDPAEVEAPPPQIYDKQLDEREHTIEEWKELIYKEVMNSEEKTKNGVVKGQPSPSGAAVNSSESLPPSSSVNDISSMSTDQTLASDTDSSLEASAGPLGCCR

Chain of Akt3 (Q9Y243 whole entry): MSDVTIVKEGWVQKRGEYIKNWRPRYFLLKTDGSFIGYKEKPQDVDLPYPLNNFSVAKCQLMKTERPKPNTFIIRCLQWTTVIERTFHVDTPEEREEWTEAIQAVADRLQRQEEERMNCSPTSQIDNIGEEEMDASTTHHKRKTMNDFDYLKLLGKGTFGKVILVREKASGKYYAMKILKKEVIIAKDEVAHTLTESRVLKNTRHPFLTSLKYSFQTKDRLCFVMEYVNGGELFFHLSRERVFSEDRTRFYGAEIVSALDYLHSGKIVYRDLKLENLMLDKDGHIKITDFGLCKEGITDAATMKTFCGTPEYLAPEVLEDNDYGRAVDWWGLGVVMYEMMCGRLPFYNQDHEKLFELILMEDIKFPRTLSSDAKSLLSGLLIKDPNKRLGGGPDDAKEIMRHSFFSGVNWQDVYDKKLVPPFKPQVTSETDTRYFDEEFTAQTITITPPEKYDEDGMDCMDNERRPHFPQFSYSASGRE

Structure (SMILES): CN(C)c1cccc(Nc2ccnc3[nH]ccc23)c1 [Compound P-0861]
- IC50 (B-Raf): ≤ 10 µM
- IC50 (B-Raf V600E): ≤ 10 µM
- IC50 (c-Raf-1): ≤ 10 µM
- IC50 (Kit): ≤ 10 µM
- IC50 (Pyk2): ≤ 10 µM
- IC50 (Akt3): ≤ 10 µM

Structure (SMILES): CSc1ccc(Nc2ccnc3[nH]ccc23)cc1 [Compound P-0990]
- IC50 (Akt3): ≤ 10 µM

Structure (SMILES): O=C(c1c(F)ccc(NS(=O)(=O)N2CCCCC2)c1F)c1c[nH]c2ncccc12 [Compound P-0952, Piperidine-1-sulfonic acid [2,4-difluoro-3-(1H-pyrrolo[2,3-b]pyridine-3-carbonyl)-phenyl]-amide]
- IC50 (B-Raf): ≤ 10 µM
- IC50 (B-Raf V600E): ≤ 10 µM
- IC50 (c-Raf-1): ≤ 10 µM
- IC50 (FGFR1): ≤ 10 µM
- IC50 (Fms): ≤ 10 µM
- IC50 (Kit): ≤ 10 µM
- IC50 (Src): ≤ 10 µM
- IC50 (Akt3): ≤ 10 µM

Structure (SMILES): Cc1ccc(Nc2ccnc3[nH]ccc23)cc1[N+](=O)[O-] [Compound P-0995]
- IC50 (Akt3): ≤ 10 µM

Structure (SMILES): CCCc1ccc(Nc2cnc3[nH]ccc3c2)cc1 [Compound P-1043]
- IC50 (B-Raf V600E): ≤ 10 µM
- IC50 (Akt3): ≤ 10 µM

Structure (SMILES): c1cc(Nc2ccc3[nH]ccc3c2)c2cc[nH]c2n1 [Compound P-0940]
- IC50 (Akt3): ≤ 10 µM

Structure (SMILES): COC(c1ccc(NCc2ccc(Cl)cc2)nc1)c1c[nH]c2ncccc12 (stereo not drawn) [Compound P-0307]
- IC50 (B-Raf): ≤ 10 µM
- IC50 (B-Raf V600E): ≤ 10 µM
- IC50 (c-Raf-1): ≤ 10 µM
- IC50 (Ret): ≤ 10 µM
- IC50 (Akt3): ≤ 10 µM

Structure (SMILES): COc1ccc(Nc2cnc3[nH]ccc3c2)cc1Cl [Compound P-1021]
- IC50 (B-Raf V600E): ≤ 10 µM
- IC50 (FGFR1): ≤ 10 µM
- IC50 (Flt1): ≤ 10 µM
- IC50 (Jnk1): ≤ 10 µM
- IC50 (Jnk3): ≤ 10 µM
- IC50 (Kit): ≤ 10 µM
- IC50 (Src): ≤ 10 µM
- IC50 (Akt3): ≤ 10 µM

Structure (SMILES): Clc1ccc(Nc2ccnc3[nH]ccc23)cc1 [Compound P-0978]
- IC50 (B-Raf): ≤ 10 µM
- IC50 (c-Raf-1): ≤ 10 µM
- IC50 (Kit): ≤ 10 µM
- IC50 (Pyk2): ≤ 10 µM
- IC50 (Akt3): ≤ 10 µM

Structure (SMILES): c1cnc2ccc(Nc3cnc4[nH]ccc4c3)cc2c1 [Compound P-1034]
- IC50 (Akt3): ≤ 10 µM

Structure (SMILES): Fc1cccc(Nc2ccnc3[nH]ccc23)c1 [Compound P-1047]
- IC50 (c-Raf-1): ≤ 10 µM
- IC50 (Akt3): ≤ 10 µM

Next, values leading:

- IC50 (Akt3): ≤ 10 µM
Structure (SMILES): COc1ccc(Nc2ccnc3[nH]ccc23)cc1 [Compound P-1155]

- IC50 (Akt3): ≤ 10 µM
Structure (SMILES): Oc1ccc(Nc2ccnc3[nH]ccc23)cc1 [Compound P-1172]

- IC50 (Flt1): ≤ 10 µM
- IC50 (Akt3): ≤ 10 µM
Structure (SMILES): c1cc(Nc2ccc(-c3cnco3)cc2)c2cc[nH]c2n1 [Compound P-1147]

- IC50 (Akt3): ≤ 10 µM
Structure (SMILES): CSc1cccc(Nc2cnc3[nH]ccc3c2)c1 [Compound P-1150]

- IC50 (Akt3): ≤ 10 µM
Structure (SMILES): COc1ccc(Nc2cnc3[nH]ccc3c2)cc1 [Compound P-1095]

- IC50 (B-Raf V600E): ≤ 10 µM
- IC50 (Akt3): ≤ 10 µM
Structure (SMILES): CCOC(c1ccc(N(Cc2ccc(Cl)cc2)C(=O)OC(C)(C)C)nc1)c1c[nH]c2ncccc12 (stereo not drawn) [Compound P-1139]
